In brackets after ≈: the same amount, converted by molar mass.
What was measured:
RAW264.7 = test: Antiinflammatory activity against mouse RAW264.7 cells assessed as inhibition of LPS induced NO production preincubated for 30 mins followed by LPS addition measured after 48 hrs by griess reagent based assay; assay type: functional, cell-based
HepG2 = test: Cytotoxicity against human HepG2 cells assessed as reduction in cell viability by MTT assay; assay type: functional, cell-based
MCF7 = test: Cytotoxicity against human MCF7 cells assessed as reduction in cell viability by MTT assay; assay type: functional, cell-based
Helicobacter pylori [1] = test: Antibacterial activity against Helicobacter pyroli 159 assessed as inhibition of bacterial growth incubated for 48 hrs; assay type: functional
A549 = test: Cytotoxicity against human A549 cells assessed as reduction in cell viability by MTT assay; assay type: functional, cell-based
HCT-116 = test: Cytotoxicity against human HCT-116 cells assessed as reduction in cell viability by MTT assay; assay type: functional, cell-based
Helicobacter pylori [2] = test: Antibacterial activity against Helicobacter pyroli G27 assessed as inhibition of bacterial growth incubated for 48 hrs; assay type: functional
Staphylococcus aureus = test: Antibacterial activity against Staphylococcus aureus ATCC25923 assessed as inhibition of bacterial growth incubated for 48 hrs; assay type: functional

IC50 (RAW264.7)	MIC (Helicobacter pylori [1])	MIC (Helicobacter pylori [2])	MIC (Staphylococcus aureus)	SMILES	IC50 (HepG2)	IC50 (MCF7)	IC50 (A549)	IC50 (HCT-116)
28 µM	32 µg/mL (≈ 90.3 µM)	–	–	COc1cccc2c1[C@H](O)[C@]13C=C[C@]4(O)CC(C)=CC(=O)[C@@H]4[C@]1(O3)C2=O	> 20 µM	> 20 µM	> 20 µM	> 20 µM
–	16 µg/mL (≈ 35.4 µM)	16 µg/mL (≈ 35.4 µM)	16 µg/mL (≈ 35.4 µM)	Cc1cc(O[C@H]2O[C@@H](C)[C@H](O)[C@@H](O)[C@H]2O)c2c3c(ccc2c1)C(=O)c1c(O)cccc1[C@@H]3O	> 20 µM	> 20 µM	> 20 µM	> 20 µM
–	32 µg/mL (≈ 89.8 µM)	–	–	COc1cccc2c1[C@H](O)[C@]13C=C[C@]4(O)CC(C)=CC(=O)[C@@H]4[C@]1(O3)[C@H]2O	> 20 µM	> 20 µM	> 20 µM	> 20 µM
